{
  "source": "PubChem BioAssay (NCI)",
  "note": "“And” between values parts separate entries of the source, which are not always exact repeats. Identical values can stand only once.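 Test compounds were applied to cells in 96-well plates for 48 hours at 5 doses. GI50 marks 50% less growth. TGI: concentration producing complete growth inhibition.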",
  "data": [
    {"system": "MDA-MB-468 breast", "assay": "growth of human tumour cells (NCI), 48 h", "units": {"TGI": "nM"}, "values": [
      {"smiles": "O=C(Nc1nn2c(-c3cc(C(F)(F)F)cc(C(F)(F)F)c3)nnc2s1)C1CCCC1", "GI50": "356 nM", "TGI": 4350},
      {"smiles": "C=C1C(=O)O[C@H]2[C@H]1CC/C(CNC(=O)c1cc3ccccc3[nH]1)=C\\CC[C@@]1(C)O[C@@H]21", "GI50": "1050 nM", "TGI": 3600},
      {"smiles": "NC(=S)N/N=C1\\c2cc(Cl)ccc2-c2c1cc(Cl)cc2[N+](=O)[O-]", "GI50": "3070 nM", "TGI": 9030},
      {"smiles": "CC(=O)N[C@@H](Cc1ccc(OP(=O)(O)O)cc1)C(=O)N[C@H]1CCC(=O)N2CCC[C@@H](C(=O)Nc3cccc4ccccc34)N2C1=O", "GI50": "> 25000 nM", "TGI": "> 25000"},
      {"smiles": "N=C(N)c1ccc(OCCCCCCCCCCOc2ccc(C(=N)N)cc2)cc1", "GI50": "414 nM", "TGI": 1800},
      {"smiles": "CC(=C(c1ccc(OCCN2CCCCC2)cc1)c1ccc(OCCN2CCCCC2)cc1)c1ccc(Cl)cc1", "GI50": "402 nM", "TGI": 809},
      {"smiles": "CCCCCCCCCCSC(=N)N", "note": "(tested in a mixture with another compound)", "GI50": "2100 nM", "TGI": 4860},
      {"smiles": "CCN1C(=O)N(CC)C2SC(N/N=C/C=C/c3ccccc3OC)=NC21", "note": "(stereo not drawn)", "GI50": "326 nM", "TGI": 48900},
      {"smiles": "NC(=S)N/N=C\\c1nccc2c(C(F)(F)F)cccc12", "GI50": "199 nM", "TGI": 612},
      {"smiles": "COc1ccccc1NC(=O)c1cc2cc(Br)ccc2cc1O", "GI50": "2790 nM", "TGI": 7870},
      {"smiles": "COc1ccc2ncnc(Nc3ccc(OCc4ccccc4)cc3)c2c1", "GI50": "2770 nM", "TGI": 9080},
      {"smiles": "CNC(=O)c1cc(Oc2ccc3nc(NC(=O)c4ccc(CN5CCCN(C)CC5)c(C(F)(F)F)c4)sc3c2)ccn1", "GI50": "1190 nM", "TGI": 2590},
      {"smiles": "CC(C)(C)[Si](C)(C)OC1[C@@H](O[Si](C)(C)C(C)(C)C)[C@@H](CNC(=O)NC(=O)C(F)(F)F)O[C@H]1n1cnc2c(NC(=O)Nc3ccccc3)ncnc21", "note": "(stereo partly drawn)", "GI50": "2180 nM", "TGI": 9160},
      {"smiles": "C=C1C[C@H](O)[C@H](Br)C(C)(C)[C@@]12CCC(C)=C(Cl)C2", "GI50": "36.9 nM", "TGI": 397},
      {"smiles": "C#CC(=O)N(c1ccc(OC)cc1OC)C(C(=O)NCC(=O)OCC)c1cccs1", "note": "(stereo not drawn)", "GI50": "316 nM", "TGI": 1170},
      {"smiles": "c1ccc(-c2n(Cc3ccc4ccccc4n3)cc[n+]2Cc2ccc3ccccc3c2)cc1", "GI50": "222 nM", "TGI": 1090},
      {"smiles": "COC(=O)/C=C/c1cc(OC(C)=O)c2c(c1)[C@@H](C(=O)OC)[C@H](c1ccc(OC(C)=O)c(OC(C)=O)c1)O2", "GI50": "380 nM", "TGI": 13700},
      {"smiles": "COc1ccc(C2c3cc4c(cc3OC3(OC)COC(=O)C23)OCO4)c(OC)c1", "note": "(stereo not drawn)", "GI50": "9240 nM", "TGI": "> 100000"},
      {"smiles": "c1ccc(Nc2ncc(-c3ccccc3)o2)cc1", "GI50": "8410 nM", "TGI": "> 25000"},
      {"smiles": "CCCn1cnc2c(c1=N)C(c1ccc(F)cc1)c1sc3c(CC)cccc3c1O2", "note": "(stereo not drawn)", "GI50": "350 nM", "TGI": "> 100000"},
      {"smiles": "CN1CCN(c2ccc(Nc3ncc(Cl)c(NC[C@@H]4CCCO4)n3)cc2)CC1", "GI50": "2180 nM", "TGI": 6640},
      {"smiles": "CCN(CC)c1ccc(/C=N/NC(=O)c2ccc(S(N)(=O)=O)cc2)c(O)c1", "GI50": "258 nM", "TGI": 1140},
      {"smiles": "COCCn1cc(-c2nc(-c3cc4cccnc4[nH]3)cs2)c2cc(OC)ccc21", "GI50": "31.7 nM", "TGI": 192},
      {"smiles": "O=C1c2ccccc2C(=O)c2c(/C=C\\N3CCCCC3)ccnc21", "GI50": "12900 nM", "TGI": 26800},
      {"smiles": "COc1c2ccccc2c(OC)c2[nH]c(=O)ccc12", "GI50": "4770 nM", "TGI": "> 91700"},
      {"smiles": "O=C1NC(=NCc2ccccc2)S/C1=C\\c1ccc2ncccc2c1", "GI50": "> 16200 nM", "TGI": "> 25000"},
      {"smiles": "O=C1OCC2=C1C(c1cccc(Br)c1)c1cc3c(cc1N2CCO)OCCO3", "note": "(stereo not drawn)", "GI50": "25.8 nM", "TGI": 181},
      {"smiles": "O=[N+]([O-])c1cc([N+](=O)[O-])c(C(F)(F)F)cc1NN=C(c1ccc(O)cc1)c1ccc(O)cc1", "GI50": "3210 nM", "TGI": 15400},
      {"smiles": "CN1CCN(C(=O)COc2ccc(C34CC5CC(CC(C5)C3)C4)cc2)CC1", "GI50": "9120 nM", "TGI": 23100},
      {"smiles": "CC[C@@H](c1ccc(O)c(O)c1)[C@@H](CC)c1ccc(O)c(O)c1", "GI50": "2090 nM", "TGI": 5510},
      {"smiles": "CCCCCCOc1ccc(/C=N/Nc2cc(C)nc3ccc(Cl)cc23)cc1", "GI50": "1650 nM", "TGI": 3130},
      {"smiles": "COc1cc(-c2nc3sccn3c2-c2ccnc(NCCNS(=O)(=O)c3ccc(F)cc3)n2)ccc1F", "GI50": "2720 nM", "TGI": "> 100000"},
      {"smiles": "NCCNCCNCCN", "GI50": "> 100000 nM", "TGI": "> 100000"},
      {"smiles": "Cc1ccc(S(=O)(=O)N2C3C=CC(C3)[C@@H]2C(Cl)(Cl)Cl)cc1", "note": "(stereo partly drawn)", "GI50": "6320 nM", "TGI": 33100},
      {"smiles": "COc1ccc(Cn2c(Br)c3c(c2Br)-c2nc(N)sc2CC3)cc1", "GI50": "1900 nM", "TGI": 14000},
      {"smiles": "COc1ccc(C(c2cc(OC)c(OC)c(OC)c2)n2cncn2)cc1O", "note": "(stereo not drawn)", "GI50": "371 nM", "TGI": "> 100000"},
      {"smiles": "CCOC(=O)n1cc(C2=C(c3ccc(OC)c(OC)c3)COC2=O)c2ccccc21", "GI50": "35.7 nM", "TGI": "> 100000"},
      {"smiles": "CC1(C)[C@@H](NOCCCN)CC[C@]2(C)[C@H]3C(=O)C=C4[C@@H]5C[C@](C)(C(=O)O)CC[C@]5(C)CC[C@@]4(C)[C@]3(C)CC[C@@H]12", "GI50": "2360 nM", "TGI": 5450},
      {"smiles": "Cc1ccc(-c2nc(N3CCNCC3)c3oc(-c4ccc(C)cc4)nc3n2)cc1", "GI50": "3290 nM", "TGI": "> 21800"},
      {"smiles": "COc1cc(-c2nn(-c3cccc(NC(=O)c4ccccc4)c3)cc2-c2ccncc2)ccc1Cl", "GI50": "349 nM", "TGI": 3420},
      {"smiles": "Cc1cc(Nc2ccc(C)c(Cl)c2)n2nc(C(F)(F)F)nc2n1", "GI50": "18700 nM", "TGI": 61600},
      {"smiles": "O=C(Nc1cccc(C(F)(F)F)c1)Nc1cccc(C(F)(F)F)c1", "GI50": "675 nM", "TGI": 3170},
      {"smiles": "C=CC(=O)Nc1cc(Nc2nccc(-c3cn(C)c4ccccc34)n2)c(OC)cc1N(C)CCN(C)C", "GI50": "27.1 nM and 47.2 nM", "TGI": 332},
      {"smiles": "COC(=O)[C@]12CC[C@@H](C)[C@H](C)[C@@H]1C1=CC[C@@H]3[C@@]4(C)C[C@@H](O)[C@H](O)[C@@](C)(CO)[C@@H]4[C@H](O)C[C@@]3(C)[C@]1(C)CC2", "GI50": "10500 nM", "TGI": 24800},
      {"smiles": "CCNC(=O)C#Cc1ccc2c(C(=Nc3ccc(CN(C)C)cc3)c3ccccc3)c(O)[nH]c2c1", "GI50": "62.1 nM", "TGI": 914},
      {"smiles": "CN(C)CC(O)c1ccc(/C=C/c2ccc(Cl)cc2)cc1", "note": "(stereo not drawn)", "GI50": "1750 nM", "TGI": 3830},
      {"smiles": "Nc1nc2[nH]cc(CCc3ccc(C(=O)N[C@@H](CCC(=O)O)C(=O)O)cc3)c2c(=O)[nH]1", "GI50": "2570 nM", "TGI": "> 100000"},
      {"smiles": "COc1cc(/C=C2\\CN(S(=O)(=O)c3ccc(C)cc3)C/C(=C\\c3cc(CN4CCCC4)c(O)c(OC)c3)C2=O)cc(CN2CCCC2)c1O", "GI50": "1150 nM", "TGI": 2650},
      {"smiles": "CC(C)[C@@H]1NC(=O)[C@]2(C)CSC(=N2)c2ccnc(c2)CNC(=O)C[C@@H](/C=C/CCS)OC1=O", "GI50": "569 nM"},
      {"smiles": "OC(c1cc(C(F)(F)F)nc2c(C(F)(F)F)cccc12)C1CCCCN1", "note": "(stereo not drawn)", "GI50": "1630 nM", "TGI": 3370},
      {"smiles": "C#Cc1cccc(Nc2nc3cc([N+](=O)[O-])ccc3nc2Nc2ccc(O)cc2)c1", "GI50": "1430 nM", "TGI": 3260},
      {"smiles": "Cc1ccc(NC2=C3CCCCC3OC2=O)cc1", "note": "(stereo not drawn)", "GI50": "21900 nM", "TGI": "> 100000"}
    ]}
  ]
}
